According to PubChem BioAssay (NCI):
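How tested: cells in 96-well plates exposed to compound for 48 hours at five concentrations. At the TGI there is no net growth.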

Assays:
Assay in all cases: inhibition of tumour cell growth, NCI panel, 48 h
786-0 renal = tested on: 786-0 renal
A498 renal = tested on: A498 renal
A549 NSCLC = tested on: A549 NSCLC
ACHN renal = tested on: ACHN renal
CAKI-1 renal = tested on: CAKI-1 renal
CCRF-CEM leukemia = tested on: CCRF-CEM leukemia
DLD-1 colon = tested on: DLD-1 colon
EKVX NSCLC = tested on: EKVX NSCLC
HCC-2998 colon = tested on: HCC-2998 colon
HCT-116 colon = tested on: HCT-116 colon
HCT-15 colon = tested on: HCT-15 colon
HL-60(TB) leukemia = tested on: HL-60(TB) leukemia
HOP-18 NSCLC = tested on: HOP-18 NSCLC
HOP-62 NSCLC = tested on: HOP-62 NSCLC
HOP-92 NSCLC = tested on: HOP-92 NSCLC
HT29 colon = tested on: HT29 colon
IGROV1 ovarian = tested on: IGROV1 ovarian
K-562 leukemia = tested on: K-562 leukemia
KM12 colon = tested on: KM12 colon
KM20L2 colon = tested on: KM20L2 colon
LOX IMVI melanoma = tested on: LOX IMVI melanoma
LXFL 529 NSCLC = tested on: LXFL 529 NSCLC
M14 melanoma = tested on: M14 melanoma
M19-MEL melanoma = tested on: M19-MEL melanoma
MALME-3M melanoma = tested on: MALME-3M melanoma
MOLT-4 leukemia = tested on: MOLT-4 leukemia
NCI-H226 lung = tested on: NCI-H226 lung
NCI-H23 lung = tested on: NCI-H23 lung
NCI-H460 lung = tested on: NCI-H460 lung
OVCAR-4 ovarian = tested on: OVCAR-4 ovarian
OVCAR-8 ovarian = tested on: OVCAR-8 ovarian
RXF-631 renal = tested on: RXF-631 renal
SF-268 CNS = tested on: SF-268 CNS
SF-295 CNS = tested on: SF-295 CNS
SF-539 CNS = tested on: SF-539 CNS
SK-MEL-2 melanoma = tested on: SK-MEL-2 melanoma
SK-MEL-28 melanoma = tested on: SK-MEL-28 melanoma
SK-OV-3 ovarian = tested on: SK-OV-3 ovarian
SN12C renal = tested on: SN12C renal
SNB-19 CNS = tested on: SNB-19 CNS
SNB-75 CNS = tested on: SNB-75 CNS
SNB-78 CNS = tested on: SNB-78 CNS
SR leukemia = tested on: SR leukemia
SW-620 colon = tested on: SW-620 colon
TK-10 renal = tested on: TK-10 renal
U251 CNS = tested on: U251 CNS
UACC-257 melanoma = tested on: UACC-257 melanoma
UACC-62 melanoma = tested on: UACC-62 melanoma
UO-31 renal = tested on: UO-31 renal
COLO 205 colon = tested on: COLO 205 colon
DMS 114 small cell lung = tested on: DMS 114 small cell lung
DMS 273 small cell lung = tested on: DMS 273 small cell lung
NCI-H522 lung = tested on: NCI-H522 lung
OVCAR-3 ovarian = tested on: OVCAR-3 ovarian
OVCAR-5 ovarian = tested on: OVCAR-5 ovarian
RPMI-8226 leukemia = tested on: RPMI-8226 leukemia
RXF 393 renal = tested on: RXF 393 renal
SK-MEL-5 melanoma = tested on: SK-MEL-5 melanoma
XF 498 CNS = tested on: XF 498 CNS

Measured: TGI

CCc1cccc(C)c1NC(=O)C(=O)CC(=O)c1ccc(Cl)s1
> 100 µM: 786-0 renal | A498 renal | A549 NSCLC | ACHN renal | CAKI-1 renal | CCRF-CEM leukemia | DLD-1 colon | EKVX NSCLC | HCC-2998 colon | HCT-116 colon | HCT-15 colon | HL-60(TB) leukemia | HOP-18 NSCLC | HOP-62 NSCLC | HOP-92 NSCLC | HT29 colon | IGROV1 ovarian | K-562 leukemia | KM12 colon | KM20L2 colon | LOX IMVI melanoma | LXFL 529 NSCLC | M14 melanoma | M19-MEL melanoma | MALME-3M melanoma | MOLT-4 leukemia | NCI-H226 lung | NCI-H23 lung | NCI-H460 lung | OVCAR-4 ovarian | OVCAR-8 ovarian | RXF-631 renal | SF-268 CNS | SF-295 CNS | SF-539 CNS | SK-MEL-2 melanoma | SK-MEL-28 melanoma | SK-OV-3 ovarian | SN12C renal | SNB-19 CNS | SNB-75 CNS | SNB-78 CNS | SR leukemia | SW-620 colon | TK-10 renal | U251 CNS | UACC-257 melanoma | UACC-62 melanoma | UO-31 renal

ClC/C=C/COC1CCCCO1 (stereo unspecified)
> 100 µM: 786-0 renal | A498 renal | A549 NSCLC | ACHN renal | CAKI-1 renal | CCRF-CEM leukemia | COLO 205 colon | DLD-1 colon | DMS 114 small cell lung | DMS 273 small cell lung | EKVX NSCLC | HCC-2998 colon | HCT-116 colon | HCT-15 colon | HOP-18 NSCLC | HOP-62 NSCLC | HOP-92 NSCLC | HT29 colon | IGROV1 ovarian | K-562 leukemia | KM12 colon | KM20L2 colon | LXFL 529 NSCLC | M14 melanoma | M19-MEL melanoma | MALME-3M melanoma | NCI-H226 lung | NCI-H23 lung | NCI-H460 lung | OVCAR-3 ovarian | OVCAR-4 ovarian | OVCAR-5 ovarian | OVCAR-8 ovarian | RPMI-8226 leukemia | RXF 393 renal | RXF-631 renal | SF-268 CNS | SF-295 CNS | SF-539 CNS | SK-MEL-2 melanoma | SK-MEL-5 melanoma | SK-OV-3 ovarian | SN12C renal | SNB-19 CNS | SNB-75 CNS | SNB-78 CNS | SW-620 colon | TK-10 renal | U251 CNS | UACC-257 melanoma | UACC-62 melanoma | UO-31 renal | XF 498 CNS
8.85 µM: NCI-H522 lung
51.4 µM: HL-60(TB) leukemia
97 µM: MOLT-4 leukemia
54.2 µM: SR leukemia
